Assay results as given in patent US20220356162A1, “Heterocyclic Compounds as Lipoxygenase Inhibitors” (Dr. Reddy's Institute of Life Sciences, priority 2019, published 2022).
Read-outs that look alike come from different tables or passages of the source.

Tests used:
human 12R-LOX enzyme = molecular target: T1, human 12R-LOX enzyme (Homo sapiens, UniProt O75342); experiment: Screening of compounds against 12R-LOX in isolated enzyme systems; type: biochemical; conditions: for inhibition at 100 µM: read-out: % Inhibition (at 100 μM)
T1 construct: Coding region of the cDNA was amplified from the basic vector pCMV6Neo-12R-LOX (OriGene, USA) and was ligated into pET28(b); His-tag (N); made in house; host or cells: E. coli BL21 Rossetta DE3
T1 sequence (O75342 1-701): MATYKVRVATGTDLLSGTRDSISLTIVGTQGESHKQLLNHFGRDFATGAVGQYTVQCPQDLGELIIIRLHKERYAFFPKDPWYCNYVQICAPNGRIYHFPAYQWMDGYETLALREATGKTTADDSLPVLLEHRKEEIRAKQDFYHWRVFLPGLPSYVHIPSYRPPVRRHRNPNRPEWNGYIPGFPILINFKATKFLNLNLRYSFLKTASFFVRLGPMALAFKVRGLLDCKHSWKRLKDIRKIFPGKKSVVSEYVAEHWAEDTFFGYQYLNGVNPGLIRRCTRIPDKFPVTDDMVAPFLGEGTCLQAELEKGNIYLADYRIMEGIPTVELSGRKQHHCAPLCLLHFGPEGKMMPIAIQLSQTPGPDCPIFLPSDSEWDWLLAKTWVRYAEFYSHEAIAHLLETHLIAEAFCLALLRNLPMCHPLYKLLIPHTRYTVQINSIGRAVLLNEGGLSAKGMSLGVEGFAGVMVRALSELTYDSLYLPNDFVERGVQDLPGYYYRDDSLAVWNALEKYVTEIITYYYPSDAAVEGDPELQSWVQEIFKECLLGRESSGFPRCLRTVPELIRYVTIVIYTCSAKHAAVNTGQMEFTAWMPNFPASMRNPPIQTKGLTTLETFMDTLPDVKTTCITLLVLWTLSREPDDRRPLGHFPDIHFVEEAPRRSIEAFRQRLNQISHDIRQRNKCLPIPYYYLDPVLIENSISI
Source text: Human 12R-LOX gene was cloned and expressed as an N-terminally His-tagged fusion protein. Coding region of the cDNA was amplified from the basic vector pCMV6Neo-12R-LOX (OriGene, USA) and was ligated into pET28(b), a prokaryotic protein expression vector. E. coli BL21 Rossetta DE3 (an engineered strain of BL21) was transformed with the pET28(b) recombinant vector containing Kanamycin and chloramphenicol resistance gene as the selection markers. Single colony selected on kanamycin and chloramphenicol was checked for the expression of the protein. For this single colony was cultured at 37° C. in LB medium containing […] kanamycin and […] chloramphenicol to reach an absorbance of 0.6 at 600 nm. The cultured bacteria were then induced to express recombinant protein by using isopropyl β-D-thiogalactopyranoside (IPTG) (1 mM final concentration) at 18° C. The culture was incubated for 8-12 h and then the culture was spun down to collect the bacterial cells. The cells were re-suspended in the required amount of phosphate buffer saline (PBS) containing protease inhibitor. The cells were then lysed by sonication to extract the protein. The cells were sonicated for 5 min. and then debris was removed by centrifugation at 13000 rpm for 30 min at 4° C. The clear supernatant was collected and was used as the source of enzyme.
Purification of the recombinant 12R-LOX protein was performed using nickel-nitrilotriacetic acid (Ni-NTA) metal-affinity chromatography as per manufacturer's protocol. Briefly, Ni-NTA slurry (500 microliters for 150 mL of culture) was added to the cleared bacterial lysate and mixed gently by shaking at 4° C. for 60 min. Then the lysate—Ni-NTA slurry was loaded into a column. The column was then washed with 10 mL of washing buffer (50 mM phosphate buffer with 300 mM sodium chloride) containing 20 mM imidazole to remove loosely bound proteins. Then tightly bound proteins were eluted from the column with elution buffer (50 mM phosphate buffer with 300 mM sodium chloride) containing 300 mM imidazole. The purified protein fractions were then analyzed further by SDS-PAGE and western blotting to confirm the presence of 12R-LOX (FIGS. 1a and 1b).
Fractions with human 12R-LOX protein were added to a total volume of 0.3 mL of phosphate buffered saline (pH 7.4) and incubated with substrate, arachidonic acid methyl ester. The mixture was vortexed and incubated for 15 min at 37° C. […] After 5 min the reaction was acidified to pH 3 with 50 μL of acetic acid and then the proteins were precipitated with the addition of 0.3 mL of ice-cold methanol. The total mixture was centrifuged (14000 rpm for 15 min) to remove the proteins and the clear supernatant was analysed on reverse phase HPLC (RP-HPLC). The solvent system used was methanol:water:acetic acid in the ratio of 85:15:0.1 with a flow rate of 1 mL/min on a C18 column. The chromatograms were followed by monitoring the absorbance for HETE products at 235 nm. Individual peak areas in each chromatogram were taken for further comparison analysis.
Baicalein, the standard 12R-LOX inhibitor, was used as a positive control for all inhibition assays performed. The compounds were evaluated for their inhibitory action against human 12R-LOX enzyme at 100 μM concentration in vitro. Further, IC50 of the compounds of the present invention were determined.

[1] = 12R-LOX inhibitory activities in vitro
[2] = 12R-LOX inhibitory activities in vitro, 100 μM concentration

Compound | IC50 (human 12R-LOX enzyme; [1]) [µM] | inhibition at 100 µM (human 12R-LOX enzyme; [2]) [%] | melting point [°C] | inhibition at 100 µM (human 12R-LOX enzyme) [%]
Nc1ccc(O)cc1-c1cc(=O)c2ccccc2o1 [Compound 1, 2-(2-Amino-5-hydroxyphenyl)-4H-chromen-4-one] | 188 | 40 | 202 to 204 | –
CS(=O)(=O)Nc1ccc(OS(C)(=O)=O)cc1-c1cc(=O)c2ccccc2o1 [Compound 2, 4-(Methylsulfonamido)-3-(4-oxo-4H-chromen-2-yl)phenylmethane Sulfonate] | – | 56 | – | –
Nc1cc(I)c(O)cc1-c1cc(=O)c2ccccc2o1 [Compound 3, 2-(2-Amino-5-hydroxy-4-iodophenyl)-4H-chromen-4-one] | 97 | 51 | – | –
COc1ccc(N)c(-c2cc(=O)c3ccccc3o2)c1 [Compound 4, 2-(2-Amino-5-methoxyphenyl)-4H-chromen-4-one] | – | – | 118 to 120 | –
CCOc1ccc(N)c(-c2cc(=O)c3ccccc3o2)c1 [Compound 5, 2-(2-Amino-5-ethoxyphenyl)-4H-chromen-4-one] | – | – | 88 to 90 | –
C#CCOc1ccc(N)c(-c2cc(=O)c3ccccc3o2)c1 [Compound 6, 2-(2-Amino-5-(prop-2-ynyloxy)phenyl)-4H-chromen-4-one] | – | – | 153 to 155 | –
C#CCOc1ccc(NS(=O)(=O)c2ccccc2)c(-c2cc(=O)c3ccccc3o2)c1 [Compound 7, N-(2-(4-Oxo-4H-chromen-2-yl)-4-(prop-2-ynyloxy)phenyl)benzene sulfonamide] | – | – | 152 to 154 | 21 ± 7
O=c1cc(-c2cc(O)ccc2NS(=O)(=O)c2ccccc2)oc2ccccc12 [Compound 8, N-(4-Hydroxy-2-(4-oxo-4H-chromen-2-yl)phenyl)benzene Sulfonamide] | – | – | > 200 | –
C#CCOc1ccc(NC(=O)c2ccccc2)c(-c2cc(=O)c3ccccc3o2)c1 [Compound 11, N-(2-(4-Oxo-4H-chromen-2-yl)-4-(prop-2-ynyloxy)phenyl) benzamide] | – | – | 154 to 156 | –
O=C(Nc1ccc(O)cc1-c1cc(=O)c2ccccc2o1)c1ccccc1 [Compound 12, N-(4-Hydroxy-2-(4-oxo-4H-chromen-2-yl)phenyl)benzamide] | – | – | > 200 | –
Nc1ccc(O)cc1-c1cc(=O)c2ccc(F)cc2o1 [Compound 13, 2-(2-Amino-5-hydroxyphenyl)-7-fluoro-4H-chromen-4-one] | – | 21 ± 8.4 | 200 to 202 | –
Nc1ccc(O)cc1-c1cc(=O)c2cc(Br)ccc2o1 [Compound 14, 2-(2-Amino-5-hydroxyphenyl)-6-bromo-4H-chromen-4-one] | – | 6.95 ± 1.6 | > 200 | –
O=c1cc(-c2cc(O)ccc2NS(=O)(=O)c2ccc([N+](=O)[O-])cc2)oc2ccccc12 [Compound 15, N-(4-Hydroxy-2-(4-oxo-4H-chromen-2-yl)phenyl)-4-nitrobenzenesulfonamide] | – | 6.33 ± 5.9 | > 200 | –
Nc1ccc(O)cc1-c1cc(=O)c2cc(O)ccc2o1 [Compound 16, 2-(2-Amino-5-hydroxyphenyl)-6-hydroxy-4H-chromen-4-one] | – | 38.3 ± 3.8 | 130 to 132 | –
O=c1cc(-c2cc(O)ccc2NS(=O)(=O)c2ccc(C(F)(F)F)cc2)oc2ccccc12 [Compound 17, N-(4-Hydroxy-2-(4-oxo-4H-chromen-2-yl)phenyl)-4-(trifluoromethyl)benzenesulfonamide] | – | 30 ± 5 | 160 to 162 | –
Nc1ccc(O)cc1-c1cc(=O)c2ccc(Br)cc2o1 [Compound 18, 2-(2-Amino-5-hydroxyphenyl)-7-bromo-4H-chromen-4-one] | 98.1 | 53.5 ± 4.2 | > 200 | –
